Source: PubChem BioAssay AID330 (DTP/NCI, 2004)
Where “and” joins values, the source holds several entries; their conditions need not be identical. Equal values may be shown once. Toxic doses and inconclusive results are not listed. Rule for the calls: active = survival T/C of 150% or more; inactive = T/C below 125% in these data.

System: P388 leukemia ip, CD2F1 mice, survival T/C
Experiment: NCI In Vivo Anticancer Drug Screen. Data for tumor model P388 Leukemia (intraperitoneal) in CD2F1 (CDF1) mice
Settings: endpoint: median survival time, higher = longer survival
In short: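 Mice carrying the transplanted tumor received test compound or vehicle. Survival was recorded in each group, and the value is the treated-group measurement divided by that of the vehicle-treated control group.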

[1] = dose: 100.0 mg/kg/injection, schedule: Q04DX003 (ip), vehicle: Klucel (hydroxypropylcellulose) (HPC)
[2] = dose: 50.0 mg/kg/injection, schedule: Q01DX005 (ip), vehicle: Klucel (hydroxypropylcellulose) (HPC)
[3] = dose: 50.0 mg/kg/injection, schedule: Q01DX005 (ip), vehicle: saline with Tween-80
[4] = dose: 100.0 mg/kg/injection, schedule: Q01DX005 (ip), vehicle: saline with Tween-80
[5] = dose: 200.0 mg/kg/injection, schedule: Q01DX005 (ip), vehicle: saline with Tween-80
[6] = dose: 50.0 mg/kg/injection, schedule: Q01DX009 (ip), vehicle: Klucel (hydroxypropylcellulose) (HPC)
[7] = dose: 100.0 mg/kg/injection, schedule: Q01DX009 (ip), vehicle: Klucel (hydroxypropylcellulose) (HPC)
[8] = dose: 200.0 mg/kg/injection, schedule: Q01DX009 (ip), vehicle: Klucel (hydroxypropylcellulose) (HPC)
[9] = dose: 100.0 mg/kg/injection, schedule: Q04DX002 (ip), vehicle: saline with Tween-80
[10] = dose: 200.0 mg/kg/injection, schedule: Q04DX002 (ip), vehicle: saline with Tween-80
[11] = dose: 400.0 mg/kg/injection, schedule: Q04DX002 (ip), vehicle: saline with Tween-80
[12] = dose: 25.0 mg/kg/injection, schedule: Q01DX005 (ip), vehicle: saline with Tween-80
[13] = dose: 25.0 mg/kg/injection, schedule: Q01DX009 (ip), vehicle: saline with Tween-80
[14] = dose: 50.0 mg/kg/injection, schedule: Q01DX009 (ip), vehicle: saline with Tween-80
[15] = dose: 100.0 mg/kg/injection, schedule: Q04DX003 (ip), vehicle: saline with Tween-80
[16] = dose: 50.0 mg/kg/injection, schedule: Q01DX009 (ip), vehicle: saline
[17] = dose: 100.0 mg/kg/injection, schedule: Q01DX009 (ip), vehicle: saline
[18] = dose: 200.0 mg/kg/injection, schedule: Q01DX009 (ip), vehicle: saline
[19] = dose: 25.0 mg/kg/injection, schedule: Q04DX003 (ip), vehicle: Klucel (hydroxypropylcellulose) (HPC)
[20] = dose: 100.0 mg/kg/injection, schedule: Q01DX005 (ip), vehicle: Klucel (hydroxypropylcellulose) (HPC)
[21] = dose: 200.0 mg/kg/injection, schedule: Q01DX005 (ip), vehicle: Klucel (hydroxypropylcellulose) (HPC)
[22] = dose: 60.0 mg/kg/injection, schedule: Q01DX005 (ip), vehicle: saline with Tween-80
[23] = dose: 120.0 mg/kg/injection, schedule: Q01DX005 (ip), vehicle: saline with Tween-80
[24] = dose: 240.0 mg/kg/injection, schedule: Q01DX005 (ip), vehicle: saline with Tween-80

Measured: T/C

CS/C(=C1/C(=O)N(c2ccccc2)N=C1c1ccc(C)cc1)N1CC1
inactive: [1] 91 % of control | dose: 200.0 mg/kg/injection, schedule: Q04DX003 (ip), vehicle: Klucel (hydroxypropylcellulose) (HPC) 94 % of control | dose: 400.0 mg/kg/injection, schedule: Q04DX003 (ip), vehicle: Klucel (hydroxypropylcellulose) (HPC) 94 % of control

CCN(CC)CCOc1ccc(C2c3cc(OC)ccc3CC2Cc2cccc(Cl)c2)cc1 (stereo unspecified)
inactive: dose: 6.25 mg/kg/injection, schedule: Q01DX005 (ip), vehicle: Klucel (hydroxypropylcellulose) (HPC) 98 % of control | dose: 12.5 mg/kg/injection, schedule: Q01DX005 (ip), vehicle: Klucel (hydroxypropylcellulose) (HPC) 95 % of control | dose: 25.0 mg/kg/injection, schedule: Q01DX005 (ip), vehicle: Klucel (hydroxypropylcellulose) (HPC) 96 % of control | [2] 93 % of control

O=C1CC(C2(c3ccc4c(c3)OCO4)SCCCS2)CO1 (stereo unspecified)
inactive: dose: 100.0 mg/kg/injection, schedule: Q01DX001 (ip), vehicle: Klucel (hydroxypropylcellulose) (HPC) 101 % of control | dose: 200.0 mg/kg/injection, schedule: Q01DX001 (ip), vehicle: Klucel (hydroxypropylcellulose) (HPC) 106 % of control | dose: 400.0 mg/kg/injection, schedule: Q01DX001 (ip), vehicle: Klucel (hydroxypropylcellulose) (HPC) 99 % of control

CCCCCCN(CCCCCC)CC(O)c1cc(-c2ccccc2)nc2ccccc12 (stereo unspecified)
inactive: [3] 100 % of control | [4] 103 % of control | [5] 105 % of control

CSC(=Nc1ccc(N(C)C)cc1)NC#N
inactive: [6] 106 % of control | [7] 103 % of control | [8] 92 % of control

COc1ccc(N=Nc2c(C)nn(C(=S)SC)c2C)cc1
inactive: [9] 100 % of control | [10] 105 % of control | [11] 109 % of control

CC(C)(C)C1CCC2(CC1)OCC1CCCN12 (stereo unspecified)
inactive: [12] 88 % of control | [3] 88 % of control | [4] 95 % of control

Nc1c(C(=O)NCc2ccccc2)c2nc3c(C(=O)NCc4ccccc4)ccc(Br)c3oc-2c(Br)c1=O
inactive: [3] 98 % of control | [4] 86 % of control | [5] 89 % of control

Cc1ccc(S(=O)(=O)N/N=C2\COC(C)C2)cc1 (stereo unspecified)
inactive: [3] 93 % of control | [4] 91 % of control

CCN(CC)c1csc2c3ccccc3nc(C)[n+]12
inactive: dose: 100.0 mg/kg/injection, schedule: Q04DX003 (ip), vehicle: saline + Tween-80 + alcohol 104 % of control | dose: 200.0 mg/kg/injection, schedule: Q04DX003 (ip), vehicle: saline + Tween-80 + alcohol 94 % of control | dose: 400.0 mg/kg/injection, schedule: Q04DX003 (ip), vehicle: saline + Tween-80 + alcohol 105 % of control

O=CNc1c(Nc2ccccc2)nc(-c2ccccc2)[nH]c1=O
inactive: dose: 15.0 mg/kg/injection, schedule: Q01DX009 (ip), vehicle: saline with Tween-80 105 % of control | dose: 30.0 mg/kg/injection, schedule: Q01DX009 (ip), vehicle: saline with Tween-80 91 % of control | dose: 60.0 mg/kg/injection, schedule: Q01DX009 (ip), vehicle: saline with Tween-80 91 % of control

CSc1nc2ccc(N=Cc3ccccc3O)cc2s1
inactive: [6] 91 % of control | [7] 89 % of control | [8] 100 % of control

COc1ccc(C(N)=O)cc1N=NN(C)C
inactive: dose: 3.12 mg/kg/injection, schedule: Q01DX009 (ip), vehicle: Klucel (hydroxypropylcellulose) (HPC) 103 % of control | dose: 3.13 mg/kg/injection, schedule: Q01DX009 (ip), vehicle: Klucel (hydroxypropylcellulose) (HPC) 103 % of control | dose: 6.25 mg/kg/injection, schedule: Q01DX009 (ip), vehicle: Klucel (hydroxypropylcellulose) (HPC) 98 % of control | dose: 12.5 mg/kg/injection, schedule: Q01DX009 (ip), vehicle: Klucel (hydroxypropylcellulose) (HPC) 107 % of control and 114 % of control | dose: 25.0 mg/kg/injection, schedule: Q01DX009 (ip), vehicle: Klucel (hydroxypropylcellulose) (HPC) 121 % of control and 123 % of control | [6] 118 % of control and 94 % of control

O=NN1CCN(N=O)CC1
inactive: [13] 113 % of control | [14] 109 % of control | dose: 50.0 mg/kg/injection, schedule: Q04DX003 (ip), vehicle: saline with Tween-80 109 % of control | [15] 104 % of control

CC1(C)OCC(C2NC2C2COC(C)(C)O2)O1 (stereo unspecified)
inactive: [16] 108 % of control | [17] 110 % of control | [18] 104 % of control

CC(C)=NNC(N)=S
inactive: dose: 12.5 mg/kg/injection, schedule: Q04DX003 (ip), vehicle: Klucel (hydroxypropylcellulose) (HPC) 93 % of control | [19] 100 % of control

CC(Cc1ccccc1)NC(=O)c1cccnc1 (stereo unspecified)
inactive: [2] 98 % of control | [20] 90 % of control | [21] 99 % of control

O=C(O)CSCC(=O)Nc1ccccc1Cl
inactive: [22] 95 % of control | [23] 91 % of control | [24] 100 % of control

S=C(N/N=C/c1ccc2c(c1)OCO2)NC1CCCCC1
inactive: [6] 111 % of control | [7] 111 % of control | [8] 116 % of control

COc1ccc(/C=C2/SC(=S)N(C(C)C)C2=O)cc1OC
inactive: dose: 6.25 mg/kg/injection, schedule: Q01DX009 (ip), vehicle: saline with Tween-80 88 % of control | dose: 12.5 mg/kg/injection, schedule: Q01DX009 (ip), vehicle: saline with Tween-80 90 % of control | [13] 94 % of control | [14] 88 % of control

Clc1nc2cc3c(cc2n2cccc12)oc1ccccc13
inactive: [12] 108 % of control | [3] 110 % of control | [4] 110 % of control | [5] 110 % of control

O=c1[nH][nH]c(=O)c2c1CCC2
inactive: dose: 6.25 mg/kg/injection, schedule: Q01DX009 (ip), vehicle: distilled water + Tween-80 100 % of control | dose: 12.5 mg/kg/injection, schedule: Q01DX009 (ip), vehicle: distilled water + Tween-80 100 % of control | dose: 25.0 mg/kg/injection, schedule: Q01DX009 (ip), vehicle: distilled water + Tween-80 100 % of control | dose: 50.0 mg/kg/injection, schedule: Q01DX009 (ip), vehicle: distilled water + Tween-80 107 % of control | dose: 100.0 mg/kg/injection, schedule: Q01DX009 (ip), vehicle: distilled water + Tween-80 103 % of control | dose: 200.0 mg/kg/injection, schedule: Q01DX009 (ip), vehicle: distilled water + Tween-80 100 % of control

Cc1noc(N)c1C
inactive: dose: 25.0 mg/kg/injection, schedule: Q01DX009 (ip), vehicle: saline 98 % of control | [16] 98 % of control | [17] 98 % of control | [18] 95 % of control

CC(=O)OCCOCNC(=S)NN1CCOCC1
inactive: [22] 100 % of control | [23] 95 % of control | [24] 100 % of control

NC(=S)N/N=C/c1cn(-c2ccc([N+](=O)[O-])cc2)cn1
inactive: [19] 86 % of control | dose: 50.0 mg/kg/injection, schedule: Q04DX003 (ip), vehicle: Klucel (hydroxypropylcellulose) (HPC) 86 % of control | [1] 94 % of control

O=C1CN(C2CC2N2CC(=O)NC(=O)C2)CC(=O)N1 (stereo unspecified)
inactive: [15] 97 % of control | dose: 200.0 mg/kg/injection, schedule: Q04DX003 (ip), vehicle: saline with Tween-80 100 % of control | dose: 400.0 mg/kg/injection, schedule: Q04DX003 (ip), vehicle: saline with Tween-80 100 % of control

Cc1ccc2c(C(=O)O)cccc2n1
inactive: [9] 97 % of control | [10] 98 % of control | [11] 95 % of control

COc1cc(C(=O)C2OC2c2ccc(Cl)cc2)c([N+](=O)[O-])cc1OC (stereo unspecified)
inactive: [2] 93 % of control | [20] 98 % of control | [21] 96 % of control

O=C1C(c2ccccc2)=C(c2ccccc2)C(=O)N1CCN1CCCC1
inactive: [22] 105 % of control | [23] 110 % of control | [24] 108 % of control
